System: 429239-143-T-J1-PDC complex spheroid viability
Experiment: Anticancer human tumor 429239-143-T-J1-PDC patient-derived small cell lung carcinoma cell line growth inhibition [POLQ]
Settings: for IC50: curve of first compound; for viability, T/C: stronger effect = lower value
Description: Multicellular complex tumor spheroid response to Polymerase (POL) inhibitors (novobiocin, ART-558, RP6685) in combination with a variety of drugs and investigational agents in selected tumor cell lines
The POL inhibitors (novobiocin, ART-558, and RP6685) were evaluated both individually and in combination with standard of care and investigational anticancer small molecules within a complex spheroid model of solid tumors. . Complex spheroids include a stromal component modeled by human endothelial cells (HUVEC) and fibroblasts modeled by human mesenchymal stem cells (MSCs). The concentration ranges selected for each drug and investigational agent were based upon clinically achievable concentrations if the clinical Cmax of the agent was known.
Compounds. The drugs and investigational agents: novobiocin (NSC847541), ART-558 (NSC835418), RP-6685 (NSC848927), peposertib (NSC802822), ceralasertib (NSC780249), elimusertib (NSC800525), camonsertib (NSC841442), AZD-1390 (NSC803789), olaparib (NSC753686), talazoparib (NSC767125), rucaparib (NSC756644), sotorasib (NSC818433), MRTX-1133 (NSC836407), SN-38 (NSC673596), topotecan (NSC609699), epotoside (NSC141540), doxorubicin (NSC123127), gemcitabine (NSC613327), 5-fluorouracil (NSC19893), paclitaxel (NSC125973), vemurafenib (NSC761431), MSA-2 (NSC828583), SN-011 (NSC837082), adavosertib (NSC754352), prexasertib (NSC758257), carboplatin (NSC241240) and oxaliplatin (NSC266046), were obtained from the National Cancer Institute (NCI) Developmental Therapeutics Program Chemical Repository (21). The FDA-approved anticancer drug set is available from the Developmental Therapeutics Program at https://dtp.cancer.gov/organization/dscb/obtaining/. […] The stock solutions were prepared in dimethyl sulfoxide (DMSO, Sigma-Aldrich, St. Louis, MO, cat. D2650), except for the platinum compounds which were prepared in saline (Quality Biological, Gaithersburg, MD, cat. 114-055-101), at 800-fold the tested concentration and stored at -70 degrees C prior to their use. All drugs and investigational agents were tested over a range starting from a high concentration at or near the clinical Cmax and decreasing in half-log increments. If the clinical Cmax for an agent had not been determined, the highest concentration tested was 10 microM, except for SN-38, which was tested at a high concentration of 1 microM.
Cell Culture. All cells were maintained in an incubator at 37 degrees C and 5% CO2 with 95% humidity. The PDC lines were cultured according to standard operating procedures established by the NCI PDMR (https://pdmr.cancer.gov). Table 3 of the manuscript, lists the cell lines along with the number of the three cell types plated to form the mct-spheroids and media for tumor cell growth. After thawing, all PDC lines, except 997537-175-T-J1-PDC and 415267-285-R-J2-PDC, were cultured in Matrigel-coated flasks prepared with a working solution of 1X Ham's F-12 nutrient mix, without supplementation (Thermo Fisher Scientific, cat. 11765054), 100 U/mL penicillin-streptomycin (Thermo Fisher Scientific, cat. 15140122), and 2.5% Matrigel (Corning Inc., Corning, NY, cat. 354248) for the first three passages. The two PDC lines 997537-175-T-J1-PDC and 415267-285-R-J2-PDC were cultured on uncoated flasks. The 857933-349-R-J2-PDC line was cultured in 6C/Colon 1B media containing advanced DMEM/F-12 (Thermo Fisher Scientific, cat. 12634028), 10 mM HEPES (Thermo Fisher Scientific, cat. 15630080), 1X GlutaMAX supplement (Thermo Fisher Scientific, cat. 35050061), 0.1 mg/mL primocin (InvivoGen, San Diego, CA, cat. ant-pm-2), 10% defined fetal bovine serum, heat inactivated (HyClone Laboratories Inc., Logan, UT, cat. SH30070.03HI), 50% L-WRN conditioned media (ATCC, cat. CRL-3276), 1.25 mM N-Acetyl-L-cysteine (Sigma-Aldrich, cat. A9165), 10 mM nicotinamide (Sigma-Aldrich, cat. N0636), 1X B-27 supplement (Thermo Fisher Scientific, cat. 17504044), 1X N-2 supplement (Thermo Fisher Scientific, cat. […]

[1] = second compound 0.0316 µM, first compound 0.0316 µM
[2] = second compound 0.0316 µM, first compound 0.1 µM
[3] = second compound 0.0316 µM, first compound 0.316 µM
[4] = second compound 0.0316 µM, first compound 1 µM
[5] = second compound 0.0316 µM, first compound 3.16 µM
[6] = second compound 0.0316 µM, first compound 10 µM
[7] = second compound 0.1 µM, first compound 0.0316 µM
[8] = second compound 0.1 µM, first compound 0.1 µM
[9] = second compound 0.1 µM, first compound 0.316 µM
[10] = second compound 0.1 µM, first compound 1 µM
[11] = second compound 0.1 µM, first compound 3.16 µM
[12] = second compound 0.1 µM, first compound 10 µM
[13] = second compound 0.316 µM, first compound 0.0316 µM
[14] = second compound 0.316 µM, first compound 0.1 µM
[15] = second compound 0.316 µM, first compound 0.316 µM
[16] = second compound 0.316 µM, first compound 1 µM
[17] = second compound 0.316 µM, first compound 3.16 µM
[18] = second compound 0.316 µM, first compound 10 µM
[19] = second compound 1 µM, first compound 0.0316 µM
[20] = second compound 1 µM, first compound 0.1 µM
[21] = second compound 1 µM, first compound 0.316 µM
[22] = second compound 1 µM, first compound 1 µM
[23] = second compound 1 µM, first compound 3.16 µM
[24] = second compound 1 µM, first compound 10 µM
[25] = second compound 3.16 µM, first compound 0.0316 µM
[26] = second compound 3.16 µM, first compound 0.1 µM
[27] = second compound 3.16 µM, first compound 0.316 µM
[28] = second compound 3.16 µM, first compound 1 µM
[29] = second compound 3.16 µM, first compound 3.16 µM
[30] = second compound 3.16 µM, first compound 10 µM
[31] = second compound 10 µM, first compound 0.0316 µM
[32] = second compound 10 µM, first compound 0.1 µM
[33] = second compound 10 µM, first compound 0.316 µM
[34] = second compound 10 µM, first compound 1 µM
[35] = second compound 10 µM, first compound 3.16 µM
[36] = second compound 10 µM, first compound 10 µM
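Also: luminescence signal used as surrogate measure of viable cells; spheroids exposed to compounds for seven days before readout.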
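For viability, T/C in this document: 100% = DMSO vehicle control viability as luminescence relative to vehicle.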

Work on CCc1cc2c(N3CCc4c(cc(Cn5ccnc5)cc4-c4cn(C)nc4C(F)(F)F)C3=O)cc(C)nc2c(OC)n1 + COC1C(OC(N)=O)C(O)C(Oc2ccc3c(O)c(NC(=O)c4ccc(O)c(CC=C(C)C)c4)c(=O)oc3c2C)OC1(C)C yielded an IC50 (second compound 0.0316 µM) of 1.47 µM, an IC50 (second compound 0.1 µM) of 2.24 µM and an IC50 (second compound 0.316 µM) of 1.39 µM. It also gave an IC50 (second compound 1 µM) of 1.99 µM, an IC50 (second compound 3.16 µM) of 1.41 µM and an IC50 (second compound 10 µM) of 0.715 µM. The viability, T/C [1] was 85.5%, the viability, T/C [2] was 85.1% and the viability, T/C [3] was 70.6%. For the same compound, the viability, T/C [4] was 50%, the viability, T/C [5] was 46.1% and the viability, T/C [6] was 29%. The viability, T/C [7] was 94.5%, the viability, T/C [8] was 88.7% and the viability, T/C [9] was 70%. It also gave a viability, T/C [10] of 64.3%, a viability, T/C [11] of 43.4% and a viability, T/C [12] of 33.4%. The viability, T/C [13] was 95.2%, the viability, T/C [14] was 95% and the viability, T/C [15] was 65.1%. It also gave a viability, T/C [16] of 57.8%, a viability, T/C [17] of 41.5% and a viability, T/C [18] of 40.4%. For the same compound, the viability, T/C [19] was 90.2%, the viability, T/C [20] was 76% and the viability, T/C [21] was 65.8%. The viability, T/C [22] was 69.1%, the viability, T/C [23] was 37.8% and the viability, T/C [24] was 30.5%. The viability, T/C [25] was 83.8%, the viability, T/C [26] was 83.3% and the viability, T/C [27] was 81.7%. For the same compound, the viability, T/C [28] was 52.6%, the viability, T/C [29] was 44.2% and the viability, T/C [30] was 31.1%. The viability, T/C [31] was 88.2%, the viability, T/C [32] was 82.8% and the viability, T/C [33] was 61.6%. The viability, T/C [34] was 44%, the viability, T/C [35] was 46.3% and the viability, T/C [36] was 34.1%.
COc1cc2cc(C(=O)CCC(=O)O)sc2cc1OC + COC1C(OC(N)=O)C(O)C(Oc2ccc3c(O)c(NC(=O)c4ccc(O)c(CC=C(C)C)c4)c(=O)oc3c2C)OC1(C)C showed an IC50 (second compound 0.0316 µM) of over 10 µM, an IC50 (second compound 0.1 µM) of over 10 µM and an IC50 (second compound 0.316 µM) of over 10 µM. For the same compound, the IC50 (second compound 1 µM) was over 10 µM, the IC50 (second compound 3.16 µM) was over 10 µM and the IC50 (second compound 10 µM) was over 10 µM. For the same compound, the viability, T/C [1] was 113%, the viability, T/C [2] was 95.9% and the viability, T/C [3] was 112%. For the same compound, the viability, T/C [4] was 105%, the viability, T/C [5] was 92.1% and the viability, T/C [6] was 92.4%. It also gave a viability, T/C [7] of 116%, a viability, T/C [8] of 104% and a viability, T/C [9] of 93.7%. The viability, T/C [10] was 100%, the viability, T/C [11] was 91.2% and the viability, T/C [12] was 92.6%. It also gave a viability, T/C [13] of 103%, a viability, T/C [14] of 99.3% and a viability, T/C [15] of 92.6%. It also gave a viability, T/C [16] of 107%, a viability, T/C [17] of 95.1% and a viability, T/C [18] of 90.2%. For the same compound, the viability, T/C [19] was 96.1%, the viability, T/C [20] was 91.1% and the viability, T/C [21] was 108%. For the same compound, the viability, T/C [22] was 90.9%, the viability, T/C [23] was 90.6% and the viability, T/C [24] was 102%. The viability, T/C [25] was 94.7%, the viability, T/C [26] was 112% and the viability, T/C [27] was 103%. For the same compound, the viability, T/C [28] was 89.4%, the viability, T/C [29] was 96% and the viability, T/C [30] was 101%. For the same compound, the viability, T/C [31] was 95.9%, the viability, T/C [32] was 91.7% and the viability, T/C [33] was 119%. The viability, T/C [34] was 96.6%, the viability, T/C [35] was 94.3% and the viability, T/C [36] was 95.7%.
COc1ccc([C@@H](O)c2cc(-c3ncnc4cc(N5CCOCC5)ccc34)c(F)cc2Cl)nn1 + COC1C(OC(N)=O)C(O)C(Oc2ccc3c(O)c(NC(=O)c4ccc(O)c(CC=C(C)C)c4)c(=O)oc3c2C)OC1(C)C was tested, and the IC50 (second compound 0.0316 µM) was 3.07 µM, the IC50 (second compound 0.1 µM) was 3.33 µM and the IC50 (second compound 0.316 µM) was 3.95 µM. The IC50 (second compound 1 µM) was 3 µM, the IC50 (second compound 3.16 µM) was 3.78 µM and the IC50 (second compound 10 µM) was 3.64 µM. For the same compound, the viability, T/C [1] was 99.5%, the viability, T/C [2] was 89.1% and the viability, T/C [3] was 94.5%. For the same compound, the viability, T/C [4] was 85.6%, the viability, T/C [5] was 49.1% and the viability, T/C [6] was 8.54%. For the same compound, the viability, T/C [7] was 96.2%, the viability, T/C [8] was 87.7% and the viability, T/C [9] was 100%. For the same compound, the viability, T/C [10] was 87.2%, the viability, T/C [11] was 51.9% and the viability, T/C [12] was 10.8%. It also gave a viability, T/C [13] of 109%, a viability, T/C [14] of 101% and a viability, T/C [15] of 99.4%. The viability, T/C [16] was 85.4%, the viability, T/C [17] was 60% and the viability, T/C [18] was 9.63%. It also gave a viability, T/C [19] of 103%, a viability, T/C [20] of 96.8% and a viability, T/C [21] of 92.5%. It also gave a viability, T/C [22] of 76.4%, a viability, T/C [23] of 48.7% and a viability, T/C [24] of 9.8%. The viability, T/C [25] was 96.6%, the viability, T/C [26] was 102% and the viability, T/C [27] was 91.1%. It also gave a viability, T/C [28] of 93.4%, a viability, T/C [29] of 57% and a viability, T/C [30] of 11.2%. For the same compound, the viability, T/C [31] was 107%, the viability, T/C [32] was 107% and the viability, T/C [33] was 95.3%. It also gave a viability, T/C [34] of 78.3%, a viability, T/C [35] of 59.3% and a viability, T/C [36] of 8.07%.
